The values that follow come from ChEMBL document CHEMBL1201862, “PubChem BioAssay data set” (2004).

Where “and” joins values, the source holds several entries; their conditions need not be identical. Equal values may be shown once.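 Each compound was tested at five concentrations against cells in 96-well plates for 48 hours. At the GI50, growth is halved.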 Calls of active or inactive are those of the source. Cut-off read from the data, not from the text of the source: active = GI50 up to about 1.1 µM and inactive = higher.

Among the test systems are NCI-H226; SK-MEL-5; SK-MEL-28; HT-29; SK-OV-3; UACC-257; KM12; HCT-15; A549; BT-549; COLO 205; OVCAR-4; HL-60; M14; HCC 2998; NCI/ADR-RES; SR; NCI-H522; RXF 393; Hs-578T.
Assay in all cases: NCI-60 cell line screen, 48 h

For the molecule `CCCCCCCCCCCCCCCCCCNC(=S)N/C=C1/C(=O)C=C(C)OC1=O`, the GI50 in the experiment with NCI-H226 is 32.9 µM (inactive); in the experiment with SK-MEL-5, 29.6 µM (inactive); in the experiment with SK-MEL-28, 32.4 µM (inactive); in the experiment with HT-29, 20.8 µM (inactive); with SK-OV-3 it was 58.2 µM (inactive); in the experiment with UACC-257, 27.5 µM (inactive). In addition, the GI50 in the experiment with KM12 was 16.6 µM (inactive); in the experiment on HCT-15, 15.7 µM; in the experiment on A549, 25.9 µM (inactive); in the experiment with BT-549 it was 19.1 µM (inactive); with COLO 205, 27.7 µM (inactive); in the experiment on OVCAR-4, 23.7 µM (inactive). In addition, the GI50 in the experiment with HL-60 was 3.31 µM (inactive); with M14 it was 18 µM (inactive); in the experiment on HCC 2998, 9.53 µM (inactive); in the experiment on NCI/ADR-RES it was 28.6 µM (inactive).
As to `Nc1nc2cc(Cl)ccc2n1N`, the GI50 was > 100 µM (inactive) with NCI-H226; > 100 µM (inactive) with SK-MEL-5; > 100 µM (inactive) with SK-MEL-28; > 100 µM (inactive) in the experiment with HT-29; 33.8 µM (inactive) in the experiment on SK-OV-3; > 100 µM (inactive) in the experiment with UACC-257. Further, the GI50 was > 100 µM (inactive) in the experiment with KM12; > 100 µM (inactive) in the experiment with SR; greater than 100 µM in the experiment with HCT-15; > 100 µM (inactive) in the experiment on NCI-H522; > 100 µM (inactive) in the experiment with A549; 67 µM (inactive) in the experiment with RXF 393. For the same molecule, the GI50 with BT-549 is 45.5 µM (inactive); in the experiment on COLO 205, > 100 µM (inactive); in the experiment with HL-60 it was > 100 µM (inactive); in the experiment on M14, > 100 µM (inactive); in the experiment on HCC 2998, > 100 µM (inactive); in the experiment on Hs-578T, > 100 µM (inactive).
With `C=C1C(=O)OC2CC1C(OC(C)=O)C/C(C)=C/CC/C(C)=C\CCC2(C)O` (stereo not given), the GI50 with SK-MEL-28 is 3.19 µM (inactive) and 2.95 µM (inactive); with SK-OV-3, 19.5 µM (inactive) and 24.5 µM (inactive); in the experiment with UACC-257 it was 3.03 µM (inactive) and 5.11 µM (inactive); with SR it was 1.29 µM (inactive); in the experiment with HCT-15, 1.56 µM and 3.04 µM; in the experiment with NCI-H522, 1.44 µM (inactive) and 1.36 µM (inactive). Besides, the GI50 was 16 µM (inactive) and 17.2 µM (inactive) in the experiment with A549; 3.67 µM (inactive) with RXF 393; 3.98 µM (inactive) and 3.92 µM (inactive) in the experiment with COLO 205; 6.35 µM (inactive) and 5.73 µM (inactive) in the experiment with OVCAR-4; 1.23 µM (inactive) and 655 nM (active) in the experiment with HL-60; 5.83 µM (inactive) and 6.1 µM (inactive) in the experiment on M14. The GI50 in the experiment with HCC 2998 was 7.69 µM (inactive) and 4.74 µM (inactive); in the experiment on NCI/ADR-RES, 3.66 µM (inactive) and 3.49 µM (inactive); in the experiment on Hs-578T it was 5.87 µM (inactive) and 3.79 µM (inactive).
In the case of `S=C1/C(=N/c2ccccc2)N(c2ccccc2)/C(=N\c2ccccn2)N1c1ccccc1`, the GI50 in the experiment with NCI-H226 is 18.2 µM (inactive); in the experiment with SK-MEL-5 it was 13.9 µM (inactive); in the experiment with SK-MEL-28, 16.8 µM (inactive); in the experiment on HT-29, 11 µM (inactive); in the experiment with SK-OV-3, 19.9 µM (inactive); in the experiment on UACC-257, 14.3 µM (inactive). For the same molecule, the GI50 in the experiment with KM12 was 12.9 µM (inactive); in the experiment with SR it was 7.83 µM (inactive); in the experiment with HCT-15, 8.18 µM; with NCI-H522 it was 1.63 µM (inactive); in the experiment with A549 it was 17.8 µM (inactive); in the experiment on RXF 393, 10 µM (inactive). The GI50 was 10.8 µM (inactive) in the experiment with COLO 205; 14.6 µM (inactive) with OVCAR-4; > 100 µM (inactive) in the experiment with HL-60; 14.1 µM (inactive) with HCC 2998; 16.7 µM (inactive) in the experiment with NCI/ADR-RES; 14.9 µM (inactive) in the experiment on Hs-578T.
For `O=C1CCCc2ccc3c(c21)CC1(Cc2ccccc2C1)C3`, the GI50 in the experiment on NCI-H226 is 13.3 µM (inactive); with SK-MEL-5, 18.5 µM (inactive); with HT-29, 17.5 µM (inactive); in the experiment with SK-OV-3, 53.5 µM (inactive); in the experiment with UACC-257 it was 21.4 µM (inactive); with KM12 it was 38.9 µM (inactive). The GI50 in the experiment with HCT-15 is 41.7 µM; in the experiment on NCI-H522, 23.9 µM (inactive); in the experiment with A549, 34.7 µM (inactive); in the experiment on RXF 393 it was 33.3 µM (inactive); with COLO 205 it was 17.2 µM (inactive); in the experiment on OVCAR-4, 17.2 µM (inactive). The GI50 in the experiment on M14 was 34.6 µM (inactive); in the experiment with HCC 2998 it was 41.5 µM (inactive); in the experiment on NCI/ADR-RES it was 50.6 µM (inactive); with Hs-578T, 25.9 µM (inactive).
On to `CN(C(=O)Cc1cc(Cl)c(Cl)cc1NC(=O)CCCN)[C@H]1CCCC[C@@H]1N1CCCC1`, for which the GI50 was 27 µM (inactive) in the experiment with NCI-H226; 16.1 µM (inactive) in the experiment on SK-MEL-5; 17.1 µM (inactive) with SK-MEL-28; 20.5 µM (inactive) in the experiment with HT-29; 95.5 µM (inactive) in the experiment with SK-OV-3; 19.1 µM (inactive) with UACC-257. Further, the GI50 was 18.7 µM (inactive) with KM12; 34.8 µM (inactive) with SR; greater than 100 µM with HCT-15; 15.8 µM (inactive) in the experiment on NCI-H522; 29.5 µM (inactive) in the experiment with A549; 16.1 µM (inactive) in the experiment with RXF 393. Further, the GI50 in the experiment with BT-549 is 71.9 µM (inactive); with COLO 205, 17.9 µM (inactive); in the experiment with OVCAR-4 it was 86.3 µM (inactive); with HL-60 it was 22.4 µM (inactive); with M14, 19 µM (inactive); in the experiment with HCC 2998, 16.6 µM (inactive). For the same molecule, the GI50 in the experiment on NCI/ADR-RES was > 100 µM (inactive).
As to `N=C(c1ccc2ccccc2c1)c1ccccc1Cc1ccccc1`, the GI50 in the experiment on NCI-H226 was 28 µM (inactive); in the experiment on SK-MEL-5 it was 37.2 µM (inactive); in the experiment with SK-MEL-28, 62.4 µM (inactive); with HT-29 it was 16.4 µM (inactive); in the experiment on SK-OV-3, 43 µM (inactive); in the experiment with UACC-257, 52.6 µM (inactive). Besides, the GI50 in the experiment with KM12 was 25.2 µM (inactive); in the experiment with SR, 19.9 µM (inactive); in the experiment with HCT-15 it was 28.8 µM; in the experiment with A549 it was 27.7 µM (inactive); with RXF 393 it was 5.97 µM (inactive); in the experiment on BT-549, 84.7 µM (inactive). Besides, the GI50 with COLO 205 is > 100 µM (inactive); in the experiment with OVCAR-4, 34.7 µM (inactive); in the experiment with HL-60 it was 27.5 µM (inactive); in the experiment on M14, 58.1 µM (inactive); in the experiment with HCC 2998, 31.8 µM (inactive); with NCI/ADR-RES, 37.2 µM (inactive).
Take `O=C1/C(=C/c2ccco2)NC(=S)N1CN1CCOCC1`: the GI50 in the experiment on NCI-H226, with SK-MEL-5, in the experiment on SK-MEL-28, in the experiment on HT-29, in the experiment on SK-OV-3 and in the experiment on UACC-257 was > 100 µM (inactive) each time. Moreover, the GI50 was > 100 µM (inactive) in the experiment on KM12; > 100 µM (inactive) in the experiment with SR; greater than 100 µM with HCT-15; > 100 µM (inactive) in the experiment on A549; > 100 µM (inactive) with COLO 205; > 100 µM (inactive) with OVCAR-4. Further, the GI50 with M14, in the experiment with NCI/ADR-RES and in the experiment with Hs-578T was > 100 µM (inactive) in each case.
With `Nc1ccc(C(=O)Nn2c(-c3ccccc3)nc3ccccc3c2=O)cc1`, the GI50 in the experiment on NCI-H226, in the experiment with SK-MEL-5, with SK-MEL-28, in the experiment on HT-29, in the experiment on SK-OV-3 and with UACC-257 was > 100 µM (inactive) in each case. The GI50 in the experiment on KM12, in the experiment with SR, in the experiment on NCI-H522, with A549, in the experiment on RXF 393 and in the experiment on BT-549 was > 100 µM (inactive) throughout. Moreover, the GI50 in the experiment with COLO 205 is > 100 µM (inactive); with OVCAR-4, > 100 µM (inactive); in the experiment on HL-60, > 100 µM (inactive); in the experiment with M14, > 100 µM (inactive); in the experiment on HCC 2998, > 100 µM (inactive); in the experiment with Hs-578T it was 14.1 µM (inactive).
For `O=C1C=CC(=O)c2c(O)nc(CBr)nc21`, the GI50 in the experiment on SK-MEL-5 is 44.9 µM (inactive); in the experiment with SK-MEL-28 it was > 100 µM (inactive); in the experiment with HT-29, 60.5 µM (inactive); in the experiment on SK-OV-3, > 100 µM (inactive); with UACC-257 it was > 100 µM (inactive); in the experiment on KM12 it was 52 µM (inactive). The GI50 with HCT-15 is greater than 100 µM; in the experiment on NCI-H522, > 100 µM (inactive); in the experiment with A549, > 100 µM (inactive); in the experiment with RXF 393, > 100 µM (inactive); in the experiment with COLO 205 it was > 100 µM (inactive); with OVCAR-4 it was > 100 µM (inactive). Moreover, the GI50 in the experiment on HL-60 was 14.9 µM (inactive); in the experiment on M14 it was 61.5 µM (inactive); in the experiment on HCC 2998, > 100 µM (inactive); with NCI/ADR-RES, > 100 µM (inactive); in the experiment with Hs-578T, > 100 µM (inactive).
For `CNC(=S)N/N=C1\C(=O)N(CN2CCOCC2)c2ccc([N+](=O)[O-])cc21`, the GI50 in the experiment with NCI-H226 was 15.8 µM (inactive); in the experiment on SK-MEL-5, 32.5 µM (inactive); in the experiment with SK-MEL-28, 20.7 µM (inactive); in the experiment on HT-29, 40.6 µM (inactive); in the experiment with SK-OV-3, 16.8 µM (inactive); in the experiment on UACC-257 it was 25.4 µM (inactive). The GI50 is 22.8 µM (inactive) in the experiment on KM12; 53.3 µM (inactive) with SR; 12.9 µM with HCT-15; 31.9 µM (inactive) in the experiment with A549; 16.4 µM (inactive) in the experiment on RXF 393; 26.9 µM (inactive) in the experiment with COLO 205. Also, the GI50 in the experiment with OVCAR-4 was 14.8 µM (inactive); in the experiment on HL-60, 23.6 µM (inactive); with M14 it was 31.6 µM (inactive); with HCC 2998, 14.9 µM (inactive); in the experiment on NCI/ADR-RES, 16.3 µM (inactive); in the experiment with Hs-578T, 25 µM (inactive).
As to `O=S(=O)(F)Cc1ccccc1` [PHENYLMETHYLSULFONYLFLUORIDE], the GI50 with NCI-H226, in the experiment on SK-MEL-5, in the experiment with SK-MEL-28, in the experiment on HT-29, in the experiment with SK-OV-3 and with UACC-257 was > 100 µM (inactive) each time. Also, the GI50 with KM12 is > 100 µM (inactive); with SR, > 100 µM (inactive); with HCT-15, greater than 100 µM; in the experiment on NCI-H522, 39.1 µM (inactive); in the experiment on A549, > 100 µM (inactive); with BT-549, > 100 µM (inactive). In addition, the GI50 in the experiment with COLO 205, in the experiment with OVCAR-4, in the experiment on M14, with HCC 2998 and in the experiment on NCI/ADR-RES was > 100 µM (inactive) throughout.
